{"source": "paper PMC7377239", "about": "“Cardiovascular Effects of Polychlorinated Biphenyls and Their Major Metabolites” (Environmental Health Perspectives, 2020)", "key": {"[1]": {"system": "iCell endothelial cells (human iPSC-derived ECs)", "test": "Tube formation (tubulogenesis) assay in iCell endothelial cells, 18 h", "format": "cell-based", "conditions": "Homo sapiens, Endothelial cell, iPSC-EC tube formation, 18 hr; for activity at 0.1 µM: 0.10 µM; for minimal effective concentration: top concentration 100.00 µM", "how_it_was_run": "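Tube formation was measured by calcein AM imaging after overnight compound exposure (37°C, 0.5% DMSO vehicle) of human iPSC-derived ECs, 7,500/well, on reduced-growth-factor Geltrex in starvation medium. Vehicle-normalized data fitted to four-parameter logistic; POD set at one vehicle SD; without response, 100 μM taken as NOAEL.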"}, "[2]": {"system": "HUVECs", "test": "Tube formation (tubulogenesis) assay in HUVECs, 18 h", "format": "cell-based, human", "conditions": "Homo sapiens, HUVEC, 18 h, HUVECs; for activity at 0.1 µM: 0.10 µM; for minimal effective concentration: top concentration 100.00 µM", "how_it_was_run": "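HUVECs (passage 1–5) seeded on reduced-growth-factor basement membrane and exposed to compounds overnight at 37°C, 5% CO2, in 2× maintenance medium with 12.5 ng/mL VEGF; 0.5% DMSO vehicle. Calcein AM-stained tube networks imaged and analysed; vehicle-normalized readouts fit to four-parameter logistic, POD set at one SD of vehicle means.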"}, "[3]": {"conditions": "0.00 µM control = 100.00, read-out: endo.mtl.18hr"}, "[4]": {"conditions": "0.00 µM control = 100.00, read-out: endo.tlps.18hr"}, "[5]": {"conditions": "0.00 µM control = 100.00, read-out: endo.tta.18hr"}, "[6]": {"conditions": "0.00 µM control = 100.00, read-out: endo.ttl.18hr"}, "[7]": {"conditions": "0.00 µM = 100.00, read-out: huvec.mtl.18hr"}, "[8]": {"conditions": "0.00 µM = 100.00, read-out: huvec.tlps.18hr"}, "[9]": {"conditions": "0.00 µM = 100.00, read-out: huvec.tta.18hr"}, "[10]": {"conditions": "0.00 µM = 100.00, read-out: huvec.ttl.18hr"}}, "note": "Counter-ions that a name gives are not always drawn. Like-named read-outs stand apart in the source and are kept apart here.", "data": [{"smiles": "O=S(=O)(O)Oc1ccc(-c2ccc(Cl)cc2)cc1", "note": "[4'-yl PCB 3 sulfate]", "values": [{"measurement": "activity at 0.01 µM", "setting": "[1]; [3]", "result": 99.2, "unit": "%"}, {"measurement": "activity at 0.01 µM", "setting": "[1]; [4]", "result": 113, "unit": "%"}, {"measurement": "activity at 0.01 µM", "setting": "[1]; [5]", "result": 157, "unit": "%"}, {"measurement": "activity at 0.01 µM", "setting": "[1]; [6]", "result": 149, "unit": "%"}, {"measurement": "activity at 0.1 µM", "setting": "[1]; [3]", "result": 105, "unit": "%"}, {"measurement": "activity at 0.1 µM", "setting": "[1]; [4]", "result": 129, "unit": "%"}, {"measurement": "activity at 0.1 µM", "setting": "[1]; [5]", "result": 138, "unit": "%"}, {"measurement": "activity at 0.1 µM", "setting": "[1]; [6]", "result": 134, "unit": "%"}, {"measurement": "activity at 1 µM", "setting": "[1]; [3]", "result": 98.2, "unit": "%"}, {"measurement": "activity at 1 µM", "setting": "[1]; [4]", "result": 137, "unit": "%"}, {"measurement": "activity at 1 µM", "setting": "[1]; [5]", "result": 128, "unit": "%"}, {"measurement": "activity at 1 µM", "setting": "[1]; [6]", "result": 120, "unit": "%"}, {"measurement": "activity at 10 µM", "setting": "[1]; [3]", "result": 74.7, "unit": "%"}, {"measurement": "activity at 10 µM", "setting": "[1]; [4]", "result": 85.4, "unit": "%"}, {"measurement": "activity at 10 µM", "setting": "[1]; [5]", "result": 81.2, "unit": "%"}, {"measurement": "activity at 10 µM", "setting": "[1]; [6]", "result": 76.8, "unit": "%"}, {"measurement": "activity at 100 µM", "setting": "[1]; [3]", "result": 60.3, "unit": "%"}, {"measurement": "activity at 100 µM", "setting": "[1]; [4]", "result": 28, "unit": "%"}, {"measurement": "activity at 100 µM", "setting": "[1]; [5]", "result": 41.8, "unit": "%"}, {"measurement": "activity at 100 µM", "setting": "[1]; [6]", "result": 44.3, "unit": "%"}, {"measurement": "minimal effective concentration", "setting": "[1]; read-out: endo.mtl.18hr POD", "result": 4.33, "unit": "µM"}, {"measurement": "minimal effective concentration", "setting": "[1]; read-out: endo.tlps.18hr POD", "result": 11.7, "unit": "µM"}, {"measurement": "minimal effective concentration", "setting": "[1]; read-out: endo.tta.18hr POD", "result": 16.8, "unit": "µM"}, {"measurement": "minimal effective concentration", "setting": "[1]; read-out: endo.ttl.18hr POD", "result": 11, "unit": "µM"}, {"measurement": "activity at 0.01 µM", "setting": "[2]; [7]", "result": 107, "unit": "%"}, {"measurement": "activity at 0.01 µM", "setting": "[2]; [8]", "result": 166, "unit": "%"}, {"measurement": "activity at 0.01 µM", "setting": "[2]; [9]", "result": 116, "unit": "%"}, {"measurement": "activity at 0.01 µM", "setting": "[2]; [10]", "result": 109, "unit": "%"}, {"measurement": "activity at 0.1 µM", "setting": "[2]; [7]", "result": 106, "unit": "%"}, {"measurement": "activity at 0.1 µM", "setting": "[2]; [8]", "result": 138, "unit": "%"}, {"measurement": "activity at 0.1 µM", "setting": "[2]; [9]", "result": 140, "unit": "%"}, {"measurement": "activity at 0.1 µM", "setting": "[2]; [10]", "result": 133, "unit": "%"}, {"measurement": "activity at 1 µM", "setting": "[2]; [7]", "result": 117, "unit": "%"}, {"measurement": "activity at 1 µM", "setting": "[2]; [8]", "result": 173, "unit": "%"}, {"measurement": "activity at 1 µM", "setting": "[2]; [9]", "result": 125, "unit": "%"}, {"measurement": "activity at 1 µM", "setting": "[2]; [10]", "result": 123, "unit": "%"}, {"measurement": "activity at 10 µM", "setting": "[2]; [7]", "result": 93, "unit": "%"}, {"measurement": "activity at 10 µM", "setting": "[2]; [8]", "result": 102, "unit": "%"}, {"measurement": "activity at 10 µM", "setting": "[2]; [9]", "result": 93.4, "unit": "%"}, {"measurement": "activity at 10 µM", "setting": "[2]; [10]", "result": 88.6, "unit": "%"}, {"measurement": "activity at 100 µM", "setting": "[2]; [7]", "result": 57.3, "unit": "%"}, {"measurement": "activity at 100 µM", "setting": "[2]; [8]", "result": 38.9, "unit": "%"}, {"measurement": "activity at 100 µM", "setting": "[2]; [9]", "result": 53.2, "unit": "%"}, {"measurement": "activity at 100 µM", "setting": "[2]; [10]", "result": 59.7, "unit": "%"}, {"measurement": "minimal effective concentration", "setting": "[2]; read-out: huvec.mtl.18hr POD", "result": 11.2, "unit": "µM"}, {"measurement": "minimal effective concentration", "setting": "[2]; read-out: huvec.tlps.18hr POD", "result": 100, "unit": "µM"}, {"measurement": "minimal effective concentration", "setting": "[2]; read-out: huvec.tta.18hr POD", "result": 25.4, "unit": "µM"}, {"measurement": "minimal effective concentration", "setting": "[2]; read-out: huvec.ttl.18hr POD", "result": 100, "unit": "µM"}]}]}
